Source: ChEMBL document CHEMBL5724914, “Linking interpersonal differences in gut microbiota composition and drug biotransformation activity” (2024)

Experiments:
[1] = (§1) The drug is tested on Z-025 corresponding to rabbit gut metagenome with ENA study accession number: PRJEB37062 and ENA sample accession number: ERS12561824 for biotransformation under anaerobic condition. The drug concentrations were measured over 9 timepoints collected between 0 and 24 hours of incubation by liquid-chromatography-coupled mass spectrometry (LC–MS); settings: 2 µM
[2] = as §1, with “Z-017” for “Z-025”, “mouse” for “rabbit”, “ERS12561816” for “ERS12561824”; settings: 2 µM
[3] = as §1, with “Z-010” for “Z-025”, “to” for “to rabbit gut”, “ERS12561810” for “ERS12561824”; settings: 2 µM
[4] = as §1, with “WLS-350” for “Z-025”, “human” for “rabbit”, “ERS12561789” for “ERS12561824”; settings: 2 µM
[5] = as §1, with “WLS-240” for “Z-025”, “human” for “rabbit”, “ERS12561773” for “ERS12561824”; settings: 2 µM
[6] = as §1, with “WLS-082” for “Z-025”, “human” for “rabbit”, “ERS12561751” for “ERS12561824”; settings: 2 µM
[7] = as §1, with “WLS-039” for “Z-025”, “human” for “rabbit”, “ERS12561746” for “ERS12561824”; settings: 2 µM
[8] = as §1, with “WLS-010” for “Z-025”, “human” for “rabbit”, “ERS12561743” for “ERS12561824”; settings: 2 µM
[9] = as §1, with “WLS-007” for “Z-025”, “human” for “rabbit”, “ERS12561742” for “ERS12561824”; settings: 2 µM
[10] = human gut metagenome, 24 h, 2 µM
[11] = human gut metagenome, 24 h, 2 µM; remark: listed apart in the source
[12] = human gut metagenome, 24 h, 2 µM; remark: listed apart in the source
[13] = human gut metagenome, 24 h, 2 µM; remark: listed apart in the source
[14] = human gut metagenome, 24 h, 2 µM; remark: listed apart in the source
[15] = human gut metagenome, 24 h, 2 µM; remark: listed apart in the source
[16] = human gut metagenome, 24 h, 2 µM; remark: listed apart in the source
[17] = human gut metagenome, 24 h, 2 µM; remark: listed apart in the source
[18] = human gut metagenome, 24 h, 2 µM; remark: listed apart in the source
[19] = human gut metagenome, 24 h, 2 µM; remark: listed apart in the source
[20] = human gut metagenome, 24 h, 2 µM; remark: listed apart in the source
Note: call rule not given here.

Bacterial Biotransformation [1]	Bacterial Biotransformation [2]	Bacterial Biotransformation [3]	Bacterial Biotransformation [4]	Bacterial Biotransformation [5]	Bacterial Biotransformation [6]	Bacterial Biotransformation [7]	Bacterial Biotransformation [8]	Bacterial Biotransformation [9]	Bacterial Biotransformation [10]	Bacterial Biotransformation [11]	Bacterial Biotransformation [12]	Bacterial Biotransformation [13]	Bacterial Biotransformation [14]	Bacterial Biotransformation [15]	Bacterial Biotransformation [16]	Bacterial Biotransformation [17]	Bacterial Biotransformation [18]	Bacterial Biotransformation [19]	Bacterial Biotransformation [20]	Structure (SMILES)
Compound metabolized	Compound metabolized	Compound metabolized	Compound metabolized	Compound metabolized	Compound metabolized	Compound metabolized	Compound metabolized	Compound metabolized	Compound metabolized	Compound metabolized	Compound metabolized	Compound metabolized	Compound metabolized	Compound metabolized	Compound metabolized	Compound metabolized	Compound metabolized	Compound NOT metabolized	Compound metabolized	CCCc1nc2c(C)cc(-c3nc4ccccc4n3C)cc2n1Cc1ccc(-c2ccccc2C(=O)O)cc1
Compound NOT metabolized	Compound NOT metabolized	Compound NOT metabolized	Compound metabolized	Compound metabolized	Compound metabolized	Compound metabolized	Compound metabolized	Compound metabolized	Compound metabolized	Compound metabolized	Compound metabolized	Compound metabolized	Compound metabolized	Compound metabolized	Compound metabolized	Compound NOT metabolized	Compound metabolized	Compound metabolized	Compound metabolized	CCCCC(=O)N(Cc1ccc(-c2ccccc2-c2nnn[nH]2)cc1)[C@H](C(=O)O)C(C)C
Compound NOT metabolized	Compound NOT metabolized	Compound NOT metabolized	Compound NOT metabolized	Compound NOT metabolized	Compound NOT metabolized	Compound NOT metabolized	Compound NOT metabolized	Compound NOT metabolized	Compound NOT metabolized	Compound NOT metabolized	Compound NOT metabolized	Compound NOT metabolized	Compound NOT metabolized	Compound NOT metabolized	Compound NOT metabolized	Compound NOT metabolized	Compound NOT metabolized	Compound NOT metabolized	Compound NOT metabolized	Cc1cc2c(cc1S(N)(=O)=O)S(=O)(=O)CCC2
Compound metabolized	Compound NOT metabolized	Compound NOT metabolized	Compound NOT metabolized	Compound NOT metabolized	Compound NOT metabolized	Compound metabolized	Compound NOT metabolized	Compound NOT metabolized	Compound metabolized	Compound metabolized	Compound metabolized	Compound metabolized	Compound NOT metabolized	Compound NOT metabolized	Compound NOT metabolized	Compound NOT metabolized	Compound metabolized	Compound NOT metabolized	Compound NOT metabolized	CN1CCc2c(c3ccccc3n2Cc2ccccc2)C1.CN1CCc2c(c3ccccc3n2Cc2ccccc2)C1.O=S(=O)(O)c1cccc2c(S(=O)(=O)O)cccc12
Compound NOT metabolized	Compound NOT metabolized	Compound metabolized	Compound metabolized	Compound metabolized	Compound metabolized	Compound NOT metabolized	Compound metabolized	Compound metabolized	Compound metabolized	Compound metabolized	Compound metabolized	Compound metabolized	Compound NOT metabolized	Compound metabolized	Compound metabolized	Compound NOT metabolized	Compound metabolized	Compound metabolized	Compound metabolized	CN1CC(=O)N2[C@H](c3ccc4c(c3)OCO4)c3[nH]c4ccccc4c3C[C@@H]2C1=O

Continued, compound first:

Structure (SMILES)	Bacterial Biotransformation [1]	Bacterial Biotransformation [2]	Bacterial Biotransformation [3]	Bacterial Biotransformation [4]	Bacterial Biotransformation [5]	Bacterial Biotransformation [6]	Bacterial Biotransformation [7]	Bacterial Biotransformation [8]	Bacterial Biotransformation [9]	Bacterial Biotransformation [10]	Bacterial Biotransformation [11]	Bacterial Biotransformation [12]	Bacterial Biotransformation [13]	Bacterial Biotransformation [14]	Bacterial Biotransformation [15]	Bacterial Biotransformation [16]	Bacterial Biotransformation [17]	Bacterial Biotransformation [18]	Bacterial Biotransformation [19]	Bacterial Biotransformation [20]
COc1cc2nc(N(C)CCCNC(=O)C3CCCO3)nc(N)c2cc1OC (stereo not given) [ALFUZOSIN]	Compound NOT metabolized	Compound NOT metabolized	Compound metabolized	Compound metabolized	Compound metabolized	Compound metabolized	Compound NOT metabolized	Compound metabolized	Compound metabolized	Compound metabolized	Compound NOT metabolized	Compound metabolized	Compound metabolized	Compound NOT metabolized	Compound metabolized	Compound metabolized	Compound NOT metabolized	Compound metabolized	Compound metabolized	Compound metabolized
NC12CC3CC(CC(C3)C1)C2 [AMANTADINE]	Compound metabolized	Compound NOT metabolized	Compound NOT metabolized	Compound NOT metabolized	Compound NOT metabolized	Compound NOT metabolized	Compound NOT metabolized	Compound NOT metabolized	Compound NOT metabolized	Compound NOT metabolized	Compound NOT metabolized	Compound NOT metabolized	Compound NOT metabolized	Compound NOT metabolized	Compound NOT metabolized	Compound NOT metabolized	Compound NOT metabolized	Compound NOT metabolized	Compound NOT metabolized	Compound NOT metabolized
CC(C)(C#N)c1cc(Cn2cncn2)cc(C(C)(C)C#N)c1 [ANASTROZOLE]	Compound NOT metabolized	Compound NOT metabolized	Compound NOT metabolized	Compound metabolized	Compound metabolized	Compound NOT metabolized	Compound NOT metabolized	Compound NOT metabolized	Compound NOT metabolized	Compound metabolized	Compound NOT metabolized	Compound NOT metabolized	Compound metabolized	Compound NOT metabolized	Compound NOT metabolized	Compound metabolized	Compound NOT metabolized	Compound metabolized	Compound NOT metabolized	Compound metabolized
O=P(O)(O)O.c1ccc(CN(CC2=NCCN2)c2ccccc2)cc1 [ANTAZOLINE PHOSPHATE]	Compound NOT metabolized	Compound NOT metabolized	Compound metabolized	Compound NOT metabolized	Compound metabolized	Compound NOT metabolized	Compound NOT metabolized	Compound NOT metabolized	Compound metabolized	Compound NOT metabolized	Compound NOT metabolized	Compound NOT metabolized	Compound NOT metabolized	Compound NOT metabolized	Compound NOT metabolized	Compound metabolized	Compound NOT metabolized	Compound metabolized	Compound metabolized	Compound metabolized
